Source: article PMC3914206

Columns and labels:
panel of 442 kinases [1] = biological target: T1, panel of 442 kinases (Homo sapiens, UniProt P33981); type: binding; conditions: kinase TTK; compound concentration 10 µM
T1 construct: purchased KINOMEscan
T1 sequence (P33981 1-857): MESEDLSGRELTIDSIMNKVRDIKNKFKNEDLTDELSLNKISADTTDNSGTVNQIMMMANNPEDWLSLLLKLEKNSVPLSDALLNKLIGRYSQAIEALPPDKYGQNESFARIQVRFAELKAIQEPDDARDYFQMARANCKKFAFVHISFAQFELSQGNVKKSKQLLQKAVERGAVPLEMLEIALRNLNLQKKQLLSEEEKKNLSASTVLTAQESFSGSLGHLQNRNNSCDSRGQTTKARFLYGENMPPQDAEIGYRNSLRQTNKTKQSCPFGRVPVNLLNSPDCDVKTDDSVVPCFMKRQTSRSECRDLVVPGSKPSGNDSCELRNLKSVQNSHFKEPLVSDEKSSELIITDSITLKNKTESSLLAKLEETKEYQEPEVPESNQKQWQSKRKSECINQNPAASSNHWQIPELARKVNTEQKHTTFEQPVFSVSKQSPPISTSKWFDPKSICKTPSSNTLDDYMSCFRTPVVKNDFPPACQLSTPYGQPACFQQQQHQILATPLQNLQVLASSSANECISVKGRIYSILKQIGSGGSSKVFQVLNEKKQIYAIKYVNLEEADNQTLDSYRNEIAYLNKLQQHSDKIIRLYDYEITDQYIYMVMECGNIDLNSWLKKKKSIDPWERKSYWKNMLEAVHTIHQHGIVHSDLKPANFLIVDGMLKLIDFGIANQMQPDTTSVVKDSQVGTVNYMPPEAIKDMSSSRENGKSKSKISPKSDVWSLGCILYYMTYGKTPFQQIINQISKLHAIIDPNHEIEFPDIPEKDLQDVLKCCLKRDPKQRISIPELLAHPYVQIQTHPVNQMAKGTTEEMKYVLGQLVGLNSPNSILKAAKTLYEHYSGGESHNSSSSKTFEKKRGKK
Description: (§1) We assessed the selectivity of members of this scaffold using the KINOMEscan methodology across a near comprehensive panel of 442 kinases [[18,27]].

panel of 442 kinases [2] = biological target: T2, panel of 442 kinases (Homo sapiens, UniProt Q13523); type: binding; conditions: Compound Concentration 10 µM
T2 construct: purchased KINOMEscan
Description: as §1

T2 sequence (Q13523 whole entry): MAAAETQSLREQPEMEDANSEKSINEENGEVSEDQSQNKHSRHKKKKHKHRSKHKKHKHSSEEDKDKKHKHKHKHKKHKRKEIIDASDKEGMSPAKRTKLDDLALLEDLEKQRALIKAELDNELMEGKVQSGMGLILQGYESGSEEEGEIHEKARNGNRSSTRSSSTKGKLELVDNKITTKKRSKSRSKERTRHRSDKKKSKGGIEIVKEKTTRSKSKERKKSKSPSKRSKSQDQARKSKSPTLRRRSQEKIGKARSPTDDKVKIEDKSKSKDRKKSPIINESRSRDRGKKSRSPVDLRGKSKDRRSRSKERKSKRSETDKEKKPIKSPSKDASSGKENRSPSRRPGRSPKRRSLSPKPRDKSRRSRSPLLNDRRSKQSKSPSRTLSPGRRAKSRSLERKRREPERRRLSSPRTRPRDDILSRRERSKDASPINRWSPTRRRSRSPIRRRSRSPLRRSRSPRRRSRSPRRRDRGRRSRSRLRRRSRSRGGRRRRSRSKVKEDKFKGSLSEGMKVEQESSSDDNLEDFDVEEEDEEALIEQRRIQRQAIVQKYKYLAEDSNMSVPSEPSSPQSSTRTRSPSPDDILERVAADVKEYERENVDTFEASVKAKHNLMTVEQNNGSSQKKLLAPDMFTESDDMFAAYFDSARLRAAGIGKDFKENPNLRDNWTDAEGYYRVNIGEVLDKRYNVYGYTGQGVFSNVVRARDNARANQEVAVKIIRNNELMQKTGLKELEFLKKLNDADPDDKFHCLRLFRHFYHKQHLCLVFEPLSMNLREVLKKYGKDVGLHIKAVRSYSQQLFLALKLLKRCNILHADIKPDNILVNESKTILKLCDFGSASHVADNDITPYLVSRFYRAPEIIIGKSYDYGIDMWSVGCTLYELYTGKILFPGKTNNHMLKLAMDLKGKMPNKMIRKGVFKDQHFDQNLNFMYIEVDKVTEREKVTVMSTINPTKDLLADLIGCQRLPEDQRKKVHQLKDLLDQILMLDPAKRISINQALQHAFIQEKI

With `COc1cc(C(=O)N2CCC(N3CCN(C)CC3)CC2)ccc1Nc1ncc2c(n1)N(C)c1ccccc1C(=O)N2C` [15 (LRRK2-IN-1)] the “% Ctrl, TTK” value (panel of 442 kinases [1]) was 28 % Ctrl and the “KINOMEscan: PRP4” value (panel of 442 kinases [2]) was 93.

For `CCOc1cc(C(=O)N2CCC(N3CCN(C)CC3)CC2)ccc1Nc1ncc2c(n1)N(C1CCCC1)c1ccccc1C(=O)N2C` [Compound 26], the “% Ctrl, TTK” value (panel of 442 kinases [1]) was 49 % Ctrl and the “KINOMEscan: PRP4” value (panel of 442 kinases [2]) was 100.

In the case of `COc1cc(C(=O)N2CCC(N3CCN(C)CC3)CC2)ccc1Nc1ncc2c(n1)N1CCc3cccc(c31)C(=O)N2C` [Compound 24], the “% Ctrl, TTK” value (panel of 442 kinases [1]) is reported as 46 % Ctrl.

For `COc1cc(C(=O)N2CCC(N3CCN(C)CC3)CC2)ccc1Nc1ncc2c(n1)N(C1CCCC1)c1ccccc1C(=O)N2C` [Compound 25, 11-cyclopentyl-2-((2-methoxy-4-(4-(4-methylpiperazin-1-yl)piperidine-1-carbonyl)phenyl)amino)-5-methyl-5H-benzo[e]pyrimido[5,4-b][1,4]diazepin-6(11H)-one], the “% Ctrl, TTK” value (panel of 442 kinases [1]) was 94 % Ctrl and the “KINOMEscan: PRP4” value (panel of 442 kinases [2]) was 95.
